# Laboratory results as given in PubChem BioAssay AID290 (DTP/NCI, 2004).
# Several values for one entry are separate records, joined by “and”; a condition that tells them apart may be missing. Equal entries are not always repeated. Inconclusive results are not listed.
# Tested on: mice, P1798 lymphosarcoma sc, survival or tumor weight T/C
# Assay: NCI In Vivo Anticancer Drug Screen. Data for tumor model P1798 Lymphosarcoma (subcutaneous) in unknown mice
# Experimental: The antitumor activity of compounds was measured in mice bearing transplantable tumors. Survival or tumor size were measured and the results are expressed as the measurement made in the treated group (T) divided by the measurement made in the vehicle treated control group (C). The tumor model used in this assay is P1798 Lymphosarcoma (subcutaneous) in unknown mice
# [1] = endpoint: mean tumor weight, dose: 37.5 mg/kg/injection, schedule: Q01DX010 (ip), vehicle: carboxymethylcellulose (CMC), higher = larger tumour
# [2] = endpoint: mean tumor weight, dose: 25.0 mg/kg/injection, schedule: Q01DX010 (ip), vehicle: carboxymethylcellulose (CMC), higher = larger tumour
smiles,measurement,setting,value
CN(Cc1cnc2nc(N)nc(N)c2n1)c1ccc(C(=O)N[C@@H](CCC(=O)O)C(=O)O)cc1,T/C,"endpoint: mean tumor weight, dose: 0.15 mg/kg/injection, schedule: Q01DX010 (ip), vehicle: other, higher = larger tumour",79 % of control and 101 % of control
same,T/C,"endpoint: mean tumor weight, dose: 0.16 mg/kg/injection, schedule: Q01DX010 (ip), vehicle: other, higher = larger tumour",118 % of control
same,T/C,"endpoint: mean tumor weight, dose: 0.39 mg/kg/injection, schedule: Q01DX010 (sc), vehicle: other, higher = larger tumour",28 % of control
same,T/C,"endpoint: mean tumor weight, dose: 0.5 mg/kg/injection, schedule: Q01DX011 (ip), vehicle: carboxymethylcellulose (CMC), higher = larger tumour",33 % of control
same,T/C,"endpoint: mean tumor weight, dose: 0.65 mg/kg/injection, schedule: Q01DX010 (sc), vehicle: other, higher = larger tumour",50 % of control
same,T/C,"endpoint: mean tumor weight, dose: 1.0 mg/kg/injection, schedule: Q01DX011 (ip), vehicle: carboxymethylcellulose (CMC), higher = larger tumour",1 % of control
same,T/C,"endpoint: mean tumor weight, dose: 1.08 mg/kg/injection, schedule: Q01DX010 (sc), vehicle: other, higher = larger tumour",18 % of control
same,T/C,"endpoint: mean tumor weight, dose: 11.0 mg/kg/injection, schedule: Q01DX001 (ip), vehicle: carboxymethylcellulose (CMC), higher = larger tumour",78 % of control
same,T/C,"endpoint: mean tumor weight, dose: 22.0 mg/kg/injection, schedule: Q01DX001 (ip), vehicle: carboxymethylcellulose (CMC), higher = larger tumour",74 % of control
same,T/C,"endpoint: mean tumor weight, dose: 43.0 mg/kg/injection, schedule: Q01DX001 (ip), vehicle: carboxymethylcellulose (CMC), higher = larger tumour",44 % of control
same,T/C,"endpoint: median survival time, dose: 0.31 mg/kg/injection, schedule: Q01DX010 (ip), vehicle: sodium bicarbonate, higher = longer survival",101 % of control
same,T/C,"endpoint: median survival time, dose: 0.62 mg/kg/injection, schedule: Q01DX010 (ip), vehicle: sodium bicarbonate, higher = longer survival",103 % of control
same,T/C,"endpoint: median survival time, dose: 0.63 mg/kg/injection, schedule: Q01DX010 (ip), vehicle: sodium bicarbonate, higher = longer survival",103 % of control
same,T/C,"endpoint: median survival time, dose: 1.25 mg/kg/injection, schedule: Q01DX010 (ip), vehicle: sodium bicarbonate, higher = longer survival",113 % of control
same,T/C,"endpoint: median survival time, dose: 2.5 mg/kg/injection, schedule: Q01DX010 (ip), vehicle: sodium bicarbonate, higher = longer survival",33 % of control
same,T/C,"endpoint: median survival time, dose: 4.0 mg/kg/injection, schedule: Q04DX007 (ip), vehicle: sodium bicarbonate, higher = longer survival",76 % of control
same,T/C,"endpoint: median survival time, dose: 5.0 mg/kg/injection, schedule: Q01DX010 (ip), vehicle: sodium bicarbonate, higher = longer survival",37 % of control
same,T/C,"endpoint: median survival time, dose: 8.0 mg/kg/injection, schedule: Q04DX007 (ip), vehicle: sodium bicarbonate, higher = longer survival",76 % of control
same,T/C,"endpoint: median survival time, dose: 16.0 mg/kg/injection, schedule: Q04DX007 (ip), vehicle: saline, higher = longer survival",161 % of control
same,T/C,"endpoint: median survival time, dose: 16.0 mg/kg/injection, schedule: Q04DX007 (ip), vehicle: sodium bicarbonate, higher = longer survival",74 % of control
same,T/C,"endpoint: median survival time, dose: 32.0 mg/kg/injection, schedule: Q04DX007 (ip), vehicle: saline, higher = longer survival",170 % of control
same,T/C,"endpoint: median survival time, dose: 32.0 mg/kg/injection, schedule: Q04DX007 (ip), vehicle: sodium bicarbonate, higher = longer survival",29 % of control
same,T/C,"endpoint: median survival time, dose: 64.0 mg/kg/injection, schedule: Q04DX007 (ip), vehicle: sodium bicarbonate, higher = longer survival",25 % of control
CCC1=C(c2cc(Cl)c3ccccc3c2OCC(=O)O)OC(CC)(C(=O)c2cc(Cl)c3ccccc3c2OCC(=O)O)CC1 (configuration not stated),T/C,"endpoint: mean tumor weight, dose: 30.0 mg/kg/injection, schedule: Q01DX010 (ip), vehicle: steriod suspending solution, higher = larger tumour",94 % of control
same,T/C,"endpoint: mean tumor weight, dose: 60.0 mg/kg/injection, schedule: Q01DX010 (ip), vehicle: steriod suspending solution, higher = larger tumour",112 % of control
same,T/C,"endpoint: mean tumor weight, dose: 120.0 mg/kg/injection, schedule: Q01DX010 (ip), vehicle: steriod suspending solution, higher = larger tumour",65 % of control
same,T/C,"endpoint: mean tumor weight, dose: 240.0 mg/kg/injection, schedule: Q01DX010 (ip), vehicle: steriod suspending solution, higher = larger tumour",85 % of control
CC(CCC(C)OS(C)(=O)=O)OS(C)(=O)=O (configuration not stated),T/C,"endpoint: mean tumor weight, dose: 5.0 mg/kg/injection, schedule: Q01DX010 (ip), vehicle: carboxymethylcellulose (CMC), higher = larger tumour",72 % of control
same,T/C,"endpoint: mean tumor weight, dose: 10.0 mg/kg/injection, schedule: Q01DX010 (ip), vehicle: carboxymethylcellulose (CMC), higher = larger tumour",93 % of control
same,T/C,"endpoint: mean tumor weight, dose: 20.0 mg/kg/injection, schedule: Q01DX010 (ip), vehicle: carboxymethylcellulose (CMC), higher = larger tumour",102 % of control
same,T/C,"endpoint: mean tumor weight, dose: 40.0 mg/kg/injection, schedule: Q01DX010 (ip), vehicle: carboxymethylcellulose (CMC), higher = larger tumour",83 % of control
S=C(N=Nc1ccccc1)NNc1ccccc1,T/C,[1],64 % of control
CC(=O)[C@H]1CC[C@H]2[C@@H]3C[C@H](C)C4=CC(=O)CC[C@]4(C)[C@H]3C(=O)C[C@]12C,T/C,"endpoint: mean tumor weight, dose: 12.5 mg/kg/injection, schedule: Q01DX010 (sc), vehicle: carboxymethylcellulose (CMC), higher = larger tumour",101 % of control
same,T/C,"endpoint: mean tumor weight, dose: 25.0 mg/kg/injection, schedule: Q01DX010 (sc), vehicle: carboxymethylcellulose (CMC), higher = larger tumour",100 % of control
same,T/C,"endpoint: mean tumor weight, dose: 50.0 mg/kg/injection, schedule: Q01DX010 (sc), vehicle: carboxymethylcellulose (CMC), higher = larger tumour",115 % of control
same,T/C,"endpoint: mean tumor weight, dose: 100.0 mg/kg/injection, schedule: Q01DX010 (sc), vehicle: carboxymethylcellulose (CMC), higher = larger tumour",112 % of control
same,T/C,"endpoint: mean tumor weight, dose: 200.0 mg/kg/injection, schedule: Q01DX010 (sc), vehicle: carboxymethylcellulose (CMC), higher = larger tumour",117 % of control
same,T/C,"endpoint: mean tumor weight, dose: 400.0 mg/kg/injection, schedule: Q01DX010 (sc), vehicle: carboxymethylcellulose (CMC), higher = larger tumour",108 % of control
O=C(O)C(=O)c1ccc(-c2ccccc2)cc1,T/C,"endpoint: mean tumor weight, dose: 31.0 mg/kg/injection, schedule: Q01DX010 (ip), vehicle: methylcellulose (MC), higher = larger tumour",82 % of control
same,T/C,"endpoint: mean tumor weight, dose: 62.5 mg/kg/injection, schedule: Q01DX010 (ip), vehicle: methylcellulose (MC), higher = larger tumour",87 % of control
same,T/C,"endpoint: mean tumor weight, dose: 125.0 mg/kg/injection, schedule: Q01DX010 (ip), vehicle: methylcellulose (MC), higher = larger tumour",106 % of control
CSc1ncnc2nc[nH]c12,T/C,[2],45 % of control
same,T/C,"endpoint: mean tumor weight, dose: 50.0 mg/kg/injection, schedule: Q01DX010 (ip), vehicle: carboxymethylcellulose (CMC), higher = larger tumour",61 % of control
same,T/C,"endpoint: mean tumor weight, dose: 100.0 mg/kg/injection, schedule: Q01DX010 (ip), vehicle: carboxymethylcellulose (CMC), higher = larger tumour",56 % of control
CO[C@H](C(=O)[C@@H](O)[C@@H](C)O)[C@@H]1Cc2cc3cc(OC4CC(OC5CC(O)C(O)C(C)O5)C(O)C(C)O4)c(C)c(O)c3c(O)c2C(=O)[C@H]1OC1CC(OC2CC(OC3CC(C)(O)C(O)C(C)O3)C(O)C(C)O2)C(O)C(C)O1 (some centres not stated),T/C,"endpoint: mean tumor weight, dose: 0.06 mg/kg/injection, schedule: Q01DX011 (ip), vehicle: saline, higher = larger tumour",89 % of control and 102 % of control
O=c1cnn(C2OC(CO)C(O)C2O)c(=O)[nH]1 (configuration not stated),T/C,"endpoint: mean tumor weight, dose: 125.0 mg/kg/injection, schedule: Q01DX010 (ip), vehicle: water, higher = larger tumour",93 % of control
same,T/C,"endpoint: mean tumor weight, dose: 250.0 mg/kg/injection, schedule: Q01DX010 (ip), vehicle: water, higher = larger tumour",67 % of control
same,T/C,"endpoint: mean tumor weight, dose: 500.0 mg/kg/injection, schedule: Q01DX010 (ip), vehicle: water, higher = larger tumour",77 % of control
same,T/C,"endpoint: mean tumor weight, dose: 1000.0 mg/kg/injection, schedule: Q01DX010 (ip), vehicle: water, higher = larger tumour",75 % of control
O=C1CCC(N2C(=O)c3ccccc3C2=O)C(=O)N1 (configuration not stated),T/C,"endpoint: mean tumor weight, dose: 18.75 mg/kg/injection, schedule: Q01DX010 (ip), vehicle: carboxymethylcellulose (CMC), higher = larger tumour",122 % of control
same,T/C,[1],68 % of control
same,T/C,"endpoint: mean tumor weight, dose: 75.0 mg/kg/injection, schedule: Q01DX010 (ip), vehicle: carboxymethylcellulose (CMC), higher = larger tumour",92 % of control
same,T/C,"endpoint: mean tumor weight, dose: 150.0 mg/kg/injection, schedule: Q01DX010 (ip), vehicle: carboxymethylcellulose (CMC), higher = larger tumour",83 % of control
CCCCNc1ncnc2c1cnn2C,T/C,"endpoint: mean tumor weight, dose: 6.25 mg/kg/injection, schedule: Q01DX010 (ip), vehicle: carboxymethylcellulose (CMC), higher = larger tumour",63 % of control
same,T/C,"endpoint: mean tumor weight, dose: 12.5 mg/kg/injection, schedule: Q01DX010 (ip), vehicle: carboxymethylcellulose (CMC), higher = larger tumour",97 % of control
same,T/C,[2],57 % of control
Nc1nc2n[nH]nc2c(=O)[nH]1,T/C,"endpoint: mean tumor weight, dose: 50.0 mg/kg/injection, schedule: Q01DX010 (ip), vehicle: other, higher = larger tumour",67 % of control and 71 % of control and 88 % of control
same,T/C,"endpoint: mean tumor weight, dose: 200.0 mg/kg/injection, schedule: Q01DX010 (ip), vehicle: other, higher = larger tumour",46 % of control
CN(C)CC(=O)c1ccc(O)c(O)c1,T/C,"endpoint: mean tumor weight, dose: 250.0 mg/kg/injection, schedule: Q01DX010 (ip), vehicle: saline, higher = larger tumour",154 % of control
N[C@@H](Cc1ccc(N(CCCl)CCCl)cc1)C(=O)O,T/C,"endpoint: mean tumor weight, dose: 1.25 mg/kg/injection, schedule: Q01DX010 (ip), vehicle: saline, higher = larger tumour",49 % of control
same,T/C,"endpoint: mean tumor weight, dose: 2.5 mg/kg/injection, schedule: Q01DX010 (ip), vehicle: saline, higher = larger tumour",29 % of control
same,T/C,"endpoint: mean tumor weight, dose: 4.0 mg/kg/injection, schedule: Q01DX011 (ip), vehicle: carboxymethylcellulose (CMC), higher = larger tumour",13 % of control
same,T/C,"endpoint: mean tumor weight, dose: 5.0 mg/kg/injection, schedule: Q01DX010 (ip), vehicle: saline, higher = larger tumour",16 % of control
same,T/C,"endpoint: median survival time, dose: 0.75 mg/kg/injection, schedule: Q01DX010 (sc), vehicle: saline, higher = longer survival",112 % of control
same,T/C,"endpoint: median survival time, dose: 1.5 mg/kg/injection, schedule: Q01DX010 (sc), vehicle: saline, higher = longer survival",104 % of control
same,T/C,"endpoint: median survival time, dose: 3.0 mg/kg/injection, schedule: Q01DX010 (sc), vehicle: saline, higher = longer survival",75 % of control
same,T/C,"endpoint: median survival time, dose: 6.0 mg/kg/injection, schedule: Q01DX010 (sc), vehicle: saline, higher = longer survival",52 % of control
same,T/C,"endpoint: median survival time, dose: 12.0 mg/kg/injection, schedule: Q01DX010 (sc), vehicle: saline, higher = longer survival",26 % of control
CC(=O)Nc1ccc2nc3ccc(NC(C)=O)cc3[n+](-c3ccccc3)c2c1,T/C,"endpoint: mean tumor weight, dose: 25.0 mg/kg/injection, schedule: Q01DX010 (ip), vehicle: saline, higher = larger tumour",56 % of control
same,T/C,"endpoint: mean tumor weight, dose: 50.0 mg/kg/injection, schedule: Q01DX010 (ip), vehicle: saline, higher = larger tumour",21 % of control
same,T/C,"endpoint: mean tumor weight, dose: 100.0 mg/kg/injection, schedule: Q01DX010 (ip), vehicle: saline, higher = larger tumour",12 % of control
same,T/C,"endpoint: mean tumor weight, dose: 200.0 mg/kg/injection, schedule: Q01DX010 (ip), vehicle: saline, higher = larger tumour",3 % of control
